From patent US20040102501A1, “Stable, low free formaldehyde, synergistic antimicrobial compositions of aldehyde donors and dehydroacetic acid” (priority 2002, published 2004)

How the values were obtained:
[1] = test system: Mixed bacteria: equal mixture of Staphylococcus aureus (ATCC No. 6538), Pseudomonas aeruginosa (ATCC No. 9027), and Escherichia coli (ATCC No. 8739); test: Preservative challenge test against mixed bacteria in anionic protein shampoo; type: cell-based
Protocol: Mixed bacteria challenge tests were performed by adding approximately 1-5×10^6 organisms per gram of formulation, the organisms comprising an equally divided mixture of Staphylococcus aureus (ATCC No. 6538), Pseudomonas aeruginosa (ATCC No. 9027), and Escherichia coli (ATCC No. 8739) incubated at 36° C. on nutrient agar […] 24 hours prior to testing. The test samples were incubated at 23° C. (room temperature) for the number of days indicated, after which an aliquot of the sample was taken and diluted stepwise to a 10^6 fold reduction in concentration. The diluted samples were plated out on tryptic soy agar and incubated for 48 hours at 36° C. After incubation, readings of the total number of colony forming units per gram (cfu/g) were made on the samples. Table 3 illustrates the levels at which the individual components Glydant®2000 and DHA are effective and ineffective against bacteria.

[2] = test system: Mixed bacteria: equal mixture of Staphylococcus aureus (ATCC No. 6538), Pseudomonas aeruginosa (ATCC No. 9027), and Escherichia coli (ATCC No. 8739); test: Synergy at Day 14 (Kull method, QA/Qa+QB/Qb) from mixed bacteria challenge test; type: cell-based; conditions: DHA alone
Protocol: A synergistic effect is a response to a combination of two or more components that produce an effect greater than the sum of their individual effects. […] E. Kull et al., “Mixtures of Quaternary Ammonium Compounds and Long-chain Fatty Acids as Antifungal Agents”, Applied Microbiology, 9:538-541 (1961). The synergism value is determined by the formula: […]
where QA is the quantity of Compound A in mixture, producing an endpoint; Qa is the quantity of Compound a acting alone, producing an endpoint; QB is the concentration of Compound B in the mixture, producing an endpoint. Qb is the concentration of Compound b acting alone, producing an endpoint.
When the value of (QA/Qa+QB/Qb) is less than one, the mixture is synergistic. Values for (QA/Qa+QB/Qb) of 1 and greater than 1, represent an additive effect and an antagonistic effect, respectively. According to this method of measuring synergism, the quantity of each component in the various mixtures is compared with the quantity of pure component that is required to reach the same endpoint or to produce the same microbiological effect as the mixture. […]

[3] = 0.150% preservative as supplied

SMILES: CC(=O)C1C(=O)C=C(C)OC1=O (stereo not shown) [DHA, dehydroacetic acid]
- Day 0 cfu/g. [1, 3]: 3.0 × 10^6 cfu/g
- Day 7 cfu/g. [1, 3]: 8.0 × 10^3 cfu/g
- Day 14 cfu/g. [1, 3]: 1.0 × 10^6 cfu/g
- Day 0 cfu/g. ([1]; 0.20% preservative as supplied): 3.0 × 10^6 cfu/g
- Day 7 cfu/g. ([1]; 0.20% preservative as supplied): 1.0 × 10^3 cfu/g
- Day 14 cfu/g. ([1]; 0.20% preservative as supplied): <10 cfu/g
- Qb (concentration of Compound b acting alone, producing an endpoint) [2]: 0.2%
